The source of these data is patent US10377784B2, “Design, synthesis, and biological activity of platinum-benz[c]acridine hybrid agents and methods associated therewith” (Wake Forest University, priority 2014, dated 2019).

A word on the IC50: it is the concentration at which inhibition is half-maximal. The low end stands for greater potency in that assay, the high end for weaker potency in that assay.

One data set relates to NCI-H460. Kind of data set: Cytotoxicity assay (MTS, Celltiter 96) in NCI-H460. The class given is cell-based, human. The note with it: for IC50: 72 h drug incubation, MTS assay, mean of duplicate experiments ± SD. The protocol: (§1) After successful synthesis and purification of P1-A1, P1-B1, and P1-B2 was completed, each drug was tested for its cell-kill ability in five non-small-cell lung cancer cell lines (Table 2).
(§2) ^aConcentration of compound that reduces cell viability by 50%, determined at 72 h of drug incubation using the MTS (3-(4,5-dimethylthiazol-2-yl)-5-(3-carboxymethoxyphenyl)-2-(4-sulfophenyl)-2H-tetrazolium) assay. Values are means of duplicate experiments±the standard deviation. ^bCompound not tested in this cell line.
(§3) The human non-small cell lung cancer cell lines, NCI-H460 (large cell), NCI-H520 (squamous cell), NCI-H522, NCI-H1435 and A549 (adenocarcinomas) were obtained from the American Type Culture Collection (Rockville, Md., USA). NCI-H460, NCI-H520 and NCI-H522 cells were cultured in RPMI-1640 media (HyClone) supplemented with 10% fetal bovine serum (FBS), […] (P&S), […], and 1.5 g/L NaHCO3. A549 cells were cultured in HAM's F12K media (Gibco) with the same additives as above. NCI-H1435 cells were cultured in serum-free 1:1 DMEM/F12 media (Gibco) containing 2.436 g/L NaHCO3, 0.02 mg/mL insulin, 0.01 mg/mL transferrin, 25 nM sodium selenite, 50 nM hydrocortisone, 1 ng/mL epidermal growth factor, 0.01 mM ethanolamine, 0.01 mM phosphorylethanolamine, 100 pM triiodothyronine, 0.5% (w/v) bovine serum albumin (BSA), 10 mM HEPES, 0.5 mM sodium pyruvate, and an extra 2 mM L-glutamine (final concentration 4.5 mM). Cells were incubated at a constant temperature at 37° C. in a humidified atmosphere containing 5% CO2 and were subcultured every 2 to 3 days in order to maintain cells in logarithmic growth, except for NCI-H1435 which was subcultured every 7 days.
(§4) The cytotoxicity studies were carried out according to a standard protocol using the Celltiter 96 aqueous nonradioactive cell proliferation assay kit (Promega, Madison, Wis.). Stock solutions (10 mM) of all drugs were made in DMF, except for P1-B2 which was made in DMSO, and serially diluted with media prior to incubation with cancer cells. IC50 values were calculated from nonlinear curve fits using a sigmoidal dose-response equation in GraphPad Prism (GraphPad Software, La Jolla, Calif.).

The next data set deals with NCI-H520. Kind of data set: Cytotoxicity assay (MTS, Celltiter 96) in NCI-H520. It counts as cell-based, human. The following applies: mean of duplicate experiments ± SD. Here is the method:
as §1, §2, §3, §4

The test system of another data set is NCI-H522. Kind of data set: Cytotoxicity assay (MTS, Celltiter 96) in NCI-H522. It counts as cell-based, human. The note with it: 72 h drug incubation, mean of duplicate experiments ± SD. Here is the method: as §1, §2, §3
(§5) The cytotoxicity studies were carried out according to a standard protocol using the Celltiter 96 aqueous nonradioactive cell proliferation assay kit (Promega, Madison, Wis.). […] IC50 values were calculated from nonlinear curve fits using a sigmoidal dose-response equation in GraphPad Prism (GraphPad Software, La Jolla, Calif.).

The subject of another data set is NCI-H1435. Kind of data set: Cytotoxicity assay (MTS, Celltiter 96) in NCI-H1435. It counts as cell-based, human. The following applies: 72 h drug incubation, mean of duplicate experiments ± SD. Here is the method: as §1, §2, §3, §5
A further data set relates to A549. Kind of data set: Cytotoxicity assay (MTS, Celltiter 96) in A549. It counts as cell-based, human. The following applies: 72 h drug incubation, mean of duplicate experiments ± SD. Here is the method:
as §1, §2, §3, §5

Data set [1] is described as follows: Spectrophotometric determination of pKa values for platinum complexes. It counts as physicochemical. The following applies: spectrophotometric titration at 25° C.; numeric values only in Chart 3 drawing. Here is the method: The pKa values of P1-A1, P1-B1 and P1-B2 were determined spectrophotometrically using a Hewlett Packard 8354 spectrophotometer equipped with a Peltier temperature control and a cell stirring module. Titrations were carried out at 25° C. in the pH range 2-11 with a micro combination electrode placed inside the cuvette. Solutions of P1-A1 (˜100 μM), P1-B1 (˜100 μM), and P1-B2 (˜50 μM) in 0.1 M HCl/100 mM NaCl were titrated with aliquots of 0.4 M, 0.04M, and 0.004M KOH, and UV-Vis spectra were recorded after a 2 min equilibration time. The protonation state of the chromophores was deduced from spectral changes around isosbestic points. The pKa values were determined graphically from plots of pH vs. log[k(Aacr/AacrH+)], where k=εacrH+/εacr using suitable absorbance maxima. The pKa values of P1-A1 and P1-B1 were determined at the y-intercept of the plot. […] Reported pKa values are means of three measurements+/−the standard deviation.

The next data set has as its system G-quadruplex DNA. Nature of the data set: G-quadruplex DNA recognition and platination. The class given is binding. The following applies: for Selective recognition of G-quadruplex DNA: displayed by induced circular dichroism (ICD). (Circular dichroism is widely used to follow secondary structure.)
The subject of data set [2] is non-small-cell lung cancer cell lines. Nature of the data set: Cytotoxicity across NSCLC lines (summary statements). It counts as cell-based, human. Here is the method:
as §1
When observing the structure-activity relationship of the platinum hybrid agents, it is important to note the increased cytotoxicity upon addition of the platinum module.
The human non-small cell lung cancer cell lines, NCI-H460 (large cell), NCI-H520 (squamous cell), NCI-H522, NCI-H1435 and A549 (adenocarcinomas) were obtained from the American Type Culture Collection (Rockville, Md., USA). NCI-H460, NCI-H520 and NCI-H522 cells were cultured in RPMI-1640 media (HyClone) supplemented with 10% fetal bovine serum (FBS), […] (P&S), […], and 1.5 g/L NaHCO3. A549 cells were cultured in HAM's F12K media (Gibco) with the same additives as above. […]
as §5

The next data set concerns DNA from NCI-H460 cells. Kind of data set: Platinum content associated with DNA in NCI-H460 cells (ICP-MS). It counts as cell-based, human. The following applies: 1 μM drug, both time points, p>0.05. Here is the method: (§6) To determine the platinum content of nucleic acid material, DNA and RNA was extracted and purified from cells using the Qiagen AllPrep DNA/RNA Mini Kit (Qiagen, Alameda, Calif., USA). 1.5×10^6 exponentially-growing NCI-H460 cells were seeded into 60-mm cell culture dishes with 2 mL of media and were allowed to attach for 24 hours. Cells were incubated in the presence of 1 μM P1-A1 or P1-B1 at 37° C. for various time intervals. Incubations were performed in triplicate for each incubation condition/time point. To quench the incubations, cells were washed three times in cold PBS. The cells were harvested via trypsinization and removed from the dishes with successive washes of cold PBS. Cell suspensions were centrifuged at 1500 rpm for 5min at 4° C. The cell pellet was re-suspended in 5 mL of cold PBS and centrifuged at 1500 rpm for 5 min at 4° C. The supernatant was removed and the DNA/RNA was extracted from the pellet according to the protocol provided by the manufacturer. The concentration and purity of each sample was determined spectrophotometrically (triplicate readings at 260 and 280 nm).
(§7) Platinum content was determined by ICP-MS.

In a further data set the test system is RNA from NCI-H460 cells. Kind of data set: Platinum content associated with RNA in NCI-H460 cells (ICP-MS). The class given is cell-based, human. The note with it: 1 μM drug, 3 h, p<0.05. Here is the method:
as §6, §7

The mark [3] stands for this setting: Homo sapiens, NCI-H520, 72 h drug incubation.

`CNCCNc1c2ccccc2nc2c1ccc1ccccc12` [Compound B1, N1-(benzo[c]acridin-7-yl)-N2-methylethane-1,2-diamine]: the IC50 in the data set with NCI-H460 (Homo sapiens, NCI-H460) was 0.9 ± 0.1 µM; in the data set with NCI-H520 (setting [3]), 1.8 ± 0.1 µM. Moreover, the “IC50 value (in words)” value in the data set with NCI-H460 (NCI-H460 cells, 72 h incubation, chromophore module alone) was “sub-micromolar range”.
With `CNCCNc1c2cc([N+](=O)[O-])ccc2nc2c1ccc1ccccc12` [Compound B2, N1-methyl-N2-(9-nitrobenzo[c]acridin-7-yl)ethane-1,2-diamine], the IC50 in the data set with NCI-H460 (Homo sapiens, NCI-H460) was 2.08 ± 0.04 µM; in the data set with NCI-H520 (setting [3]), 3.35 ± 0.08 µM.
In the case of “[Pt(Cl)(NH3)2(N-(2-(acridin-9-ylamino)ethyl)-N-methylpropionimidamide)] Cl [Compound P1-A1, reference compound]”, the IC50 in the data set on NCI-H460 was found to be 0.0052 ± 6e-05 µM; in the data set on NCI-H520 (72 h drug incubation), 0.043 ± 0.004 µM; in the data set on NCI-H522, 0.01 ± 0.0007 µM; in the data set on NCI-H1435 it was 0.84 ± 0.07 µM; with A549, 0.0065 ± 0.0002 µM. Besides, the “pKa (rank among the three Pt-chromophore hybrid agents)” value in data set [1] is on record as “highest”. Besides, in the data set with G-quadruplex DNA, the “Selective recognition of G-quadruplex DNA” value (shortened to “Selective recognition”) is “not previously displayed”.
Take “[Pt(Cl)(NH3)2(N-(2-(benzo[c]acridin-7-ylamino)ethyl)-N-methylpropionimidamide)] Cl [Compound P1-B1]”: the IC50 with NCI-H460 was 0.24 ± 0.01 µM; with NCI-H520 (72 h drug incubation), 0.516 ± 0.009 µM; in the data set with NCI-H522, 0.12 ± 0.02 µM; with NCI-H1435 it was 1.479 ± 0.009 µM; with A549, 0.32 ± 0.06 µM; in data set [2] (NSCLC lines tested except NCI-H1435) it was 100 to 500 nM. Moreover, in data set [2] (72 hour incubations, extremely aggressive NSCLC models), the “cytotoxicity (in words)” value is “nanomolar cytotoxicity”. Moreover, in the data set on DNA from NCI-H460 cells, the “platinum level observed in the DNA of treated cells vs control cells” value is given as “not statistically significant”. For the same molecule, the “platinum level observed in the RNA of treated cells” value with RNA from NCI-H460 cells is listed as “statistically significant”. Further, in the data set with G-quadruplex DNA, the “folding and irreversible platination of G-quadruplex DNA” value is “ability to fold and irreversibly platinate G-quadruplex DNA”. In addition, in the data set on G-quadruplex DNA, the “Selective recognition” value is “Selective recognition of G-quadruplex DNA”.
For “[Pt(Cl)(NH3)2(N-methyl-N-(2-((9-nitrobenzo[c]acridin-7-yl)amino)ethyl)propionimidamide)] Cl •1/3 DMF [Compound P1-B2]”, the IC50 amounted to 2.4 ± 0.5 µM with NCI-H460; 2.2 ± 0.1 µM with NCI-H520 (72 h drug incubation); 3.62 ± 0.08 µM with NCI-H522; 11 ± 0.2 µM in the data set on NCI-H1435; 12.4 ± 0.9 µM with A549. Further, the “pKa (rank among the three Pt-chromophore hybrid agents)” value in data set [1] was “lowest”. Further, the “folding and irreversible platination of G-quadruplex DNA” value in the data set with G-quadruplex DNA is “ability to fold and irreversibly platinate G-quadruplex DNA”. Also, the “Selective recognition” value in the data set on G-quadruplex DNA is “Selective recognition of G-quadruplex DNA”.
